In general, IC50 refers to the concentration at which inhibition is half-maximal.

SMILES strings stand for the structures.

human Kv1.3, sequence (P22001 whole entry): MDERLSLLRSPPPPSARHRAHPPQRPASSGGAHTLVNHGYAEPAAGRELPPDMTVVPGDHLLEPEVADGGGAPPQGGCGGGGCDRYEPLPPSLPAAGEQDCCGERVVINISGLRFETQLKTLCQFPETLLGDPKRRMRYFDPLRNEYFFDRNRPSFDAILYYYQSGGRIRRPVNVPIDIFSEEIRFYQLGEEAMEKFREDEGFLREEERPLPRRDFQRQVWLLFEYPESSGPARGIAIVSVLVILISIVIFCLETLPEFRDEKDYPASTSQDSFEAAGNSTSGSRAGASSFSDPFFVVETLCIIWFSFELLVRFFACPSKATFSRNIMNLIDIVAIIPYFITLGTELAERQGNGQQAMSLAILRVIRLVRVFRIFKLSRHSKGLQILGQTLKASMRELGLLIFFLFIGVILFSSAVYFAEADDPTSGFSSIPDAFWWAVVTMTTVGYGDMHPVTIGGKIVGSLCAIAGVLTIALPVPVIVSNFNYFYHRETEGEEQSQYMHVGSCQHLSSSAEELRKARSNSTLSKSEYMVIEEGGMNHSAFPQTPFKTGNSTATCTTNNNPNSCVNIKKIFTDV

The target in this test is human Kv1.3 (Homo sapiens, UniProt P22001). As to the kind of experiment: Kv1.3 patch-clamp electrophysiology (planar electrode, whole-cell, steady state current). The format is cell-based. Particulars: CHO/Kv1.3 stable cell line; steady state current amplitude at end of 500 ms depolarising pulse to +40 mV; values given as ranges; read-out: IC50 (Kv1.3 ephys steady state). As to the method:
The inhibition data shown for the compounds of the list below was calculated using the steady state current amplitude at the end of the depolarising pulse in patch clamp evaluations (as described in the Pharmacology Example 2).
The human Kv1.3 construct (Kv1.3/pENTR, clone IOH61428) was purchased from Invitrogen and subcloned into pcDNA 3.2-DEST (Invitrogen). CHO-K1 cells obtained from ATCC (cat #CCL-61) were transfected with the Kv1.3/pcDNA3.2DEST construct and a stable cell line was developed through two rounds of limiting dilution under G418 selection. Positive (Kv1.3 expressing) clones were identified using electrophysiology.
CHO/Kv1.x stable cell lines were grown in a humidified atmosphere at 37 °C, 5% CO2 in T-75 flasks containing F12 Kaighn's medium supplemented with 10% fetal calf serum, 2 mM L-glutamine, 100 units/ml penicillin, 100 µg/ml streptomycin and 500 µg/ml G418 (to maintain selection). CHO/Kv1.1 and CHO/Kv1.5 cells used for patching were transferred to 33 °C for 48 hours prior to use.
Kv1.x currents were measured using a planar electrode version (Nanion Technologies GMBH) of the patch-clamp technique. Whole-cell Kv1.x current transients were evoked by 500 ms depolarising voltage pulses to +40 mV from a holding potential of -80 mV applied at 10 s intervals for Kv1.1 and Kv1.5 and at 30 s intervals for Kv1.3 to allow adequate time for recovery from inactivation. Cells were continuously bathed in a buffered saline solution containing (mM): 160 NaCl, 4.5 KCI, 2 CaCl2, 1 MgCl2, 5 glucose, 10 HEPES, pH 7.4, 290-310 mOsm.Kg^-1. The internal (pipette) solution contained (mM): 10 NaCl, 70 KF, 75 KCI, 2 MgCl2, 10 HEPES, 10 EGTA, pH 7.2, 290-310 mOsm.Kg^-1. Series resistance compensation (60-80%) was applied when the peak current amplitude exceeded 2 nA.
Compounds were initially dissolved in DMSO to 10 mM. After further dilution in DMSO, compounds were finally diluted in bath solution 1/200 (to give a final DMSO concentration of 0.5%) and applied directly to the recording chamber. Compounds were added at increasing concentrations allowing ample time for steady state block to be achieved between each concentration. Each compound was tested at 5-6 different concentrations on 2-3 cells. IC50 values can be determined by fitting the average normalised reduction of either the current integral or the steady state current amplitude at the end of the depolarising pulse obtained at each compound concentration to the Hill equation. The IC50 data reported herein is based on the steady state calculation.
In the case of `CC(CC(=O)N(CCOc1ccccn1)C(C)c1ccc2c(c1)CCC2)c1ccc(F)cc1` (stereo not shown) [Example 46, N-[1-(2,3-dihydro-1H-inden-5-yl)ethyl]-3-(4-fluorophenyl)-N-[2-(pyridin-2-yloxy)ethyl]butanamide], the IC50 was 50 to 200 nM.

Regarding `Cc1cccc(OCCN(C(=O)CCc2ccc(F)cc2)C(C)c2ccc3c(c2)CCC3)n1` (stereo not shown) [Example 53, N-[1-(2,3-dihydro-1H-inden-5-yl)ethyl]-3-(4-fluorophenyl)-N-[2-(6-methylpyridin-2-yloxy)ethyl]propanamide], the IC50 is 50 to 200 nM.

As to `CC1(C)Oc2ccc(C(C3CC3)N(Cc3ccccn3)C(=O)COc3ccc(F)cc3)cc2S1(=O)=O` (stereo not shown) [Example 77, N-[cyclopropyl(2,2-dimethyl-3,3-dioxido-1,3-benzoxathiol-5-yl)methyl]-2-(4-fluorophenoxy)-N-(pyridin-2-ylmethyl)acetamide], the IC50 lay within 50 to 200 nM.

Consider `CC(C)C(c1ccccc1)N(Cc1ccccn1)C(=O)CCc1ccc(F)cc1` (stereo not shown) [Example 20, 3-(4-fluorophenyl)-N-(2-methyl-1-phenylpropyl)-N-(pyridin-2-ylmethyl)propanamide], for which the IC50 lay within 50 to 200 nM.

For the origin of these results see patent publication EP2524912A1, “Amine derivatives” (Bionomics Limited, priority 2011, dated 2012).
